This assay addresses hNav1.7 (Homo sapiens (Human), UniProt Q15858). The assay is described as follows: Tritiated compound binding to membranes from cells expressing hNav1.7 and the β1 subunit, competitive binding (LBA, Ex. 243A). To be noted: 100 pM [3H]compound, 18 h, room temperature.
[1] abbreviates: read-out: Nav1.7 (LBA) (Ex. 243A).
The mark [2] stands for this setting: read-out: Nav1.7 LBA (Ex. 243A) IC50.

For 31 compounds, IC50 results are on record in US10457654B2 (GENENTECH, INC., priority 2017, dated 2019).

Where a name gives a salt, the structure may show the parent alone. Read-outs that look alike come from different tables or passages of the source.

Chain of hNav1.7 (Q15858 whole entry, looked up): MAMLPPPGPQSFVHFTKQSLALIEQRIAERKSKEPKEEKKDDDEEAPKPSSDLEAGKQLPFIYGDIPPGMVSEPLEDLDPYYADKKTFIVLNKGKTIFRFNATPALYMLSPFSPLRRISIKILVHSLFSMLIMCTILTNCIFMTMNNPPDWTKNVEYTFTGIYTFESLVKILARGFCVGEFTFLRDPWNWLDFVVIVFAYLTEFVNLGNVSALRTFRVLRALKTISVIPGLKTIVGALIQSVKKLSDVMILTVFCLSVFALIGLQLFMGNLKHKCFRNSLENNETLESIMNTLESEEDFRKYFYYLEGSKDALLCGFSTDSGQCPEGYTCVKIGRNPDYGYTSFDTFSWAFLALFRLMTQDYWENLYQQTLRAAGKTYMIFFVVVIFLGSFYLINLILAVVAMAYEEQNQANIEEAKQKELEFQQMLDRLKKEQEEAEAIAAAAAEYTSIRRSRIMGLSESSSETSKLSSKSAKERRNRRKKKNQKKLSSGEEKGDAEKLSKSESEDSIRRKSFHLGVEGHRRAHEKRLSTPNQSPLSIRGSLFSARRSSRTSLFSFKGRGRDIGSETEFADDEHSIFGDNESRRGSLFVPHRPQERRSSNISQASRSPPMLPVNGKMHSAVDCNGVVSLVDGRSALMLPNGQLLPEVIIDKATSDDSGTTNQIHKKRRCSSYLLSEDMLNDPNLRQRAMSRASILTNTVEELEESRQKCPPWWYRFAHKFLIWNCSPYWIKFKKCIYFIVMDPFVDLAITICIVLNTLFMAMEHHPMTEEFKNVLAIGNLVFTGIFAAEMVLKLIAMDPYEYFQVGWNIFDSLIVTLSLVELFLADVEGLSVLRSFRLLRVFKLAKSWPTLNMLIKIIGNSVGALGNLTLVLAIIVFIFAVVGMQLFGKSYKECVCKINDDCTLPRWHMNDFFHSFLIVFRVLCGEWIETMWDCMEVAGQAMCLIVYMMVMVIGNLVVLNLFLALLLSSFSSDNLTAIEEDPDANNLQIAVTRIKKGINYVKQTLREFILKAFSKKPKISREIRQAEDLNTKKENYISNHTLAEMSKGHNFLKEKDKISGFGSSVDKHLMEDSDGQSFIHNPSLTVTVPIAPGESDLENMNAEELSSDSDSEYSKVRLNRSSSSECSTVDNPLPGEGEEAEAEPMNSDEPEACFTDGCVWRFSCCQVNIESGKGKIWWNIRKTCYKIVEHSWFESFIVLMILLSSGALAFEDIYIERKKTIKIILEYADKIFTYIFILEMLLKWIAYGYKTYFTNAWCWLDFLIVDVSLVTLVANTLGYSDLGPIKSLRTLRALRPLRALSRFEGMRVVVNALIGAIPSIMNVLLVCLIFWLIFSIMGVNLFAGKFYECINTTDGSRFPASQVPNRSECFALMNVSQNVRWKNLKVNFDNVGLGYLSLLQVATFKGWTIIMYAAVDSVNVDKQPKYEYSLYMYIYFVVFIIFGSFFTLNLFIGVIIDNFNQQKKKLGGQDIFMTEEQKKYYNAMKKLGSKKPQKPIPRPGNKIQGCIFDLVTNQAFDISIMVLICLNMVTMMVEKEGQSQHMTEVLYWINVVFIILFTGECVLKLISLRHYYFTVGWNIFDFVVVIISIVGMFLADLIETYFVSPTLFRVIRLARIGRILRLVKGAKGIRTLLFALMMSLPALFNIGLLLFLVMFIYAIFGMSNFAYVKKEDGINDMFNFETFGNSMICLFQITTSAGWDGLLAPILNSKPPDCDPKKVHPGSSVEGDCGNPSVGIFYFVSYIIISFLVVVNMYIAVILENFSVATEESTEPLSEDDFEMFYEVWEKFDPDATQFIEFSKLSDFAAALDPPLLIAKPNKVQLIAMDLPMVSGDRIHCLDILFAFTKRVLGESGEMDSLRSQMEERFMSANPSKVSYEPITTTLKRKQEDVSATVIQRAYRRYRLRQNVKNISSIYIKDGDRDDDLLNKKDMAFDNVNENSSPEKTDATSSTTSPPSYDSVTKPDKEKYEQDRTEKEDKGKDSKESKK
Chain of hNav1.7 (Q07699 whole entry partner, looked up): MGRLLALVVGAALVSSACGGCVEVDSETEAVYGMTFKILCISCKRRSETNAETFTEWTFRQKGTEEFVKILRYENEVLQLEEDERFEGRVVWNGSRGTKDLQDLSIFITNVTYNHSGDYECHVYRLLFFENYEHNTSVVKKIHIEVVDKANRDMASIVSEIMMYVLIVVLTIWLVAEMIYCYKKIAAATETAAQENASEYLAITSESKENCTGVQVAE

As to `O=S(=O)(Nc1nccs1)c1cc(Cl)c(N[C@H]2CCCC[C@@H]2NCc2ccccc2)cc1F` [Example 5, 4-(((1S,2S)-2-(benzylamino)cyclohexyl)amino)-5-chloro-2-fluoro-N-(thiazol-2-yl)benzenesulfonamide 2,2,2-trifluoroacetate], the IC50 under setting [1] came to 426 nM.
As for `CN(C1CNC1)[C@H]1CCCC[C@@H]1Nc1cc(F)c(S(=O)(=O)Nc2nccs2)cc1C1CC1` [Example 57, 4-(((1S,2S)-2-(azetidin-3-yl(methyl)amino)cyclohexyl)amino)-5-cyclopropyl-2-fluoro-N-(thiazol-2-yl)benzenesulfonamide dihydrochloride], the IC50 under setting [2] is 2.42 nM.
Take `Cc1csc(NS(=O)(=O)c2cc(Cl)c(N[C@H]3CCCC[C@@H]3N3CCCC3)cc2F)n1` [Example 92, 5-chloro-2-fluoro-N-(4-methylthiazol-2-yl)-4-(((1S,2S)-2-(pyrrolidin-1-yl)cyclohexyl)amino)benzenesulfonamide formate]: the IC50 under setting [2] came to 118 nM.
`CN(C)[C@H]1CCCC[C@@H]1Nc1cc(F)c(S(=O)(=O)Nc2cscn2)cc1Cl` [Example 46, 5-chloro-4-(((1S,2S)-2-(dimethylamino)cyclohexyl)amino)-2-fluoro-N-(thiazol-4-yl)benzenesulfonamide]: the IC50 under setting [2] amounted to 770 nM.
The same measure, in the same setting: to `Cc1cnc(NS(=O)(=O)c2cc(Cl)c(N[C@H]3CCCC[C@@H]3N(C)C)cc2F)s1` [Example 40, 5-chloro-4-(((1S,2S)-2-(dimethylamino)cyclohexyl)amino)-2-fluoro-N-(5-methylthiazol-2-yl)benzenesulfonamide formate] belongs 880 nM; to `CC(O)CN(C)[C@H]1CCCC[C@@H]1Nc1cc(F)c(S(=O)(=O)Nc2cccc(F)n2)cc1Cl` (stereo partly drawn) [Example 86, 5-chloro-2-fluoro-N-(6-fluoropyridin-2-yl)-4-(((1S,2S)-2-((2-hydroxypropyl)(methyl)amino)cyclohexyl)amino)benzenesulfonamide], 38.1 nM.
Still for that read-out and setting: to `CN(C)[C@H]1CCCC[C@@H]1Nc1cc(F)c(S(=O)(=O)Nc2ccncn2)cc1C1CC1` [Example 69, 5-cyclopropyl-4-(((1S,2S)-2-(dimethylamino)cyclohexyl)amino)-2-fluoro-N-(pyrimidin-4-yl)benzenesulfonamide formate] belongs 296 nM.
On the same count and under the same terms, to `CCN[C@H]1CCCC[C@@H]1Nc1cc(F)c(S(=O)(=O)Nc2nccs2)cc1Br` [Example 52, 5-bromo-4-(((1S,2S)-2-(ethylamino)cyclohexyl)amino)-2-fluoro-N-(thiazol-2-yl)benzenesulfonamide formate] belongs 8.48 nM.
Regarding `CN(C)[C@H]1CC(C(F)(F)F)=CC[C@@H]1Nc1cc(F)c(S(=O)(=O)Nc2nccs2)cc1Cl` [Example 23], under setting [1], the IC50 came to 8.4 nM.
`CN(C)[C@H]1CC[C@@H](c2cccc(C(F)(F)F)c2)C[C@@H]1Nc1cc(F)c(S(=O)(=O)Nc2nccs2)cc1Cl` [Example 88, 5-chloro-4-(((1S,2S,5R)-2-(dimethylamino)-5-(3-(trifluoromethyl)phenyl)cyclohexyl)amino)-2-fluoro-N-(thiazol-2-yl)benzenesulfonamide]: under setting [2], the IC50 turned out to be 201 nM.
Still for that read-out and setting: as for `CN(C1COC1)[C@H]1CCCC[C@@H]1Nc1cc(F)c(S(=O)(=O)Nc2nccs2)cc1Cl` [Example 97, 5-chloro-2-fluoro-4-(((1S,2S)-2-(methyl(oxetan-3-yl)amino)cyclohexyl)amino)-N-(thiazol-2-yl)benzenesulfonamide], the figure is 36.4 nM; as for `CN(CC1CC1)[C@H]1CCCC[C@@H]1Nc1cc(F)c(S(=O)(=O)Nc2nccs2)cc1Cl` [Example 31, 5-chloro-4-(((1S,2S)-2-((cyclopropylmethyl)(methyl)amino)cyclohexyl)amino)-2-fluoro-N-(thiazol-2-yl)benzenesulfonamide], 163 nM.
On to `CN(C)[C@H]1CCCC[C@@H]1Nc1cc(F)c(S(=O)(=O)Nc2ncns2)cc1F` [Example 13, 4-(((1S,2S)-2-(dimethylamino)cyclohexyl)amino)-2,5-difluoro-N-(1,2,4-thiadiazol-5-yl)benzenesulfonamide formate], for which the IC50 under setting [1] turned out to be 357 nM.
Same read-out and setting: as for `CCN(C)[C@H]1CCCC[C@@H]1Nc1cc(F)c(S(=O)(=O)Nc2nccs2)cc1Cl` [Example 18, 5-chloro-4-[[(1S,2S)-2-[ethyl(methyl)amino]cyclohexyl]amino]-2-fluoro-N-thiazol-2-yl-benzenesulfonamide], the figure is 16.8 nM.
For the compound `CN(C)[C@@H]1CC[C@@H](c2cccc(C(F)(F)F)c2)C[C@H]1Nc1cc(F)c(S(=O)(=O)Nc2nccs2)cc1Cl` [Example 93, 5-chloro-4-(((1R,2R,5R)-2-(dimethylamino)-5-(3-(trifluoromethyl)phenyl)cyclohexyl)amino)-2-fluoro-N-(thiazol-2-yl)benzenesulfonamide], the IC50 under setting [2] is 64.7 nM.
The same measure, in the same setting: as for `CN[C@H]1CCCC[C@@H]1Nc1cc(F)c(S(=O)(=O)Nc2nccs2)cc1Br` [Example 50, 5-bromo-2-fluoro-4-(((1S,2S)-2-(methylamino)cyclohexyl)amino)-N-(thiazol-2-yl)benzenesulfonamide formate], the figure is 58.4 nM.
Consider `CN(C)[C@H]1CCCC[C@@H]1Oc1cc(F)c(S(=O)(=O)Nc2nccs2)cc1C1CC1` [Example 24, 5-cyclopropyl-4-[(1S,2S)-2-(dimethylamino)cyclohexoxy]-2-fluoro-N-thiazol-2-yl-benzenesulfonamide], for which the IC50 under setting [1] came to 49.9 nM.
Consider `CCN[C@H]1CCCC[C@@H]1Nc1cc(F)c(S(=O)(=O)Nc2cccc(F)n2)cc1Cl` [Example 73, 5-chloro-4-(((1S,2S)-2-(ethylamino)cyclohexyl)amino)-2-fluoro-N-(6-fluoropyridin-2-yl)benzenesulfonamide], for which the IC50 under setting [2] worked out at 19.7 nM.
Take `CN(C)[C@@H]1C[C@H](C(F)(F)F)CC[C@H]1Nc1cc(F)c(S(=O)(=O)Nc2nccs2)cc1Cl` [Example 36, 5-chloro-4-(((1R,2R,4R)-2-(dimethylamino)-4-(trifluoromethyl)cyclohexyl)amino)-2-fluoro-N-(thiazol-2-yl)benzenesulfonamide]: the IC50 under setting [2] was 93.6 nM.
Still for that read-out and setting: as for `O=S(=O)(Nc1nccs1)c1cc(Cl)c(N[C@H]2CCCC[C@@H]2N2CCOCC2)cc1F` [Example 101, 5-chloro-2-fluoro-4-(((1S,2S)-2-morpholinocyclohexyl)amino)-N-(thiazol-2-yl)benzenesulfonamide], the figure is 25.5 nM.
For `CN(C)[C@H]1CCC[C@@H]1Nc1cc(F)c(S(=O)(=O)Nc2nccs2)cc1Cl` [Example 12, 5-chloro-4-(((1S,2S)-2-(dimethylamino)cyclopentyl)amino)-2-fluoro-N-(thiazol-2-yl)benzenesulfonamide], the IC50 under setting [1] was found to be 165 nM.
`CN(C1CNC1)[C@H]1CCCC[C@@H]1Nc1cc(F)c(S(=O)(=O)Nc2cccc(F)n2)cc1Cl` [Example 55, 4-(((1S,2S)-2-(azetidin-3-yl(methyl)amino)cyclohexyl)amino)-5-chloro-2-fluoro-N-(6-fluoropyridin-2-yl)benzenesulfonamide]: under setting [2], the IC50 worked out at 7.38 nM.
With `CN(C)[C@@H]1CCCC[C@H]1Oc1cc(F)c(S(=O)(=O)Nc2nccs2)cc1C1CC1` [Example 25, 5-cyclopropyl-4-[(1R,2R)-2-(dimethylamino)cyclohexoxy]-2-fluoro-N-thiazol-2-yl-benzenesulfonamide], under setting [1], the IC50 came to 7420 nM.
Turning to `CNCCN(C)[C@H]1CCCC[C@@H]1Nc1cc(F)c(S(=O)(=O)Nc2nccs2)cc1Cl` [Example 58, 5-chloro-2-fluoro-4-(((1S,2S)-2-(methyl(2-(methylamino)ethyl)amino)cyclohexyl)amino)-N-(thiazol-2-yl)benzenesulfonamide formate], the IC50 under setting [2] amounted to 3.42 nM.
Turning to `O=S(=O)(Nc1nccs1)c1cc(Cl)c(N[C@H]2CCCC[C@@H]2NC2CCC2)cc1F` [Example 16, 5-chloro-4-[[(1S,2S)-2-(cyclobutylamino)cyclohexyl]amino]-2-fluoro-N-thiazol-2-yl-benzenesulfonamide], the IC50 under setting [1] amounted to 325 nM.
Consider `O=S(=O)(Nc1ccncn1)c1cc(Cl)c(N[C@H]2CCCC[C@@H]2N2CCCC2)cc1F` [Example 60, 5-chloro-2-fluoro-N-(pyrimidin-4-yl)-4-(((1S,2S)-2-(pyrrolidin-1-yl)cyclohexyl)amino)benzenesulfonamide], for which the IC50 under setting [2] amounted to 198 nM.
Still for that read-out and setting: to `CN(CCO)[C@H]1CCCC[C@@H]1Nc1cc(F)c(S(=O)(=O)Nc2ccncn2)cc1Cl` [Example 89, 5-chloro-2-fluoro-4-(((1S,2S)-2-((2-hydroxyethyl)(methyl)amino)cyclohexyl)amino)-N-(pyrimidin-4-yl)benzenesulfonamide formate] belongs 59.9 nM; to `CN(C)[C@@H]1C[C@@H](C(F)(F)F)CC[C@H]1Nc1cc(F)c(S(=O)(=O)Nc2nccs2)cc1Cl` [Example 81, 5-chloro-4-(((1R,2R,4S)-2-(dimethylamino)-4-(trifluoromethyl)cyclohexyl)amino)-2-fluoro-N-(thiazol-2-yl)benzenesulfonamide], 1740 nM; to `CN(C)[C@H]1CCCC[C@@H]1Nc1cc(F)c(S(=O)(=O)Nc2nccs2)cc1C(F)(F)F` [Example 65, 4-(((1S,2S)-2-(dimethylamino)cyclohexyl)amino)-2-fluoro-N-(thiazol-2-yl)-5-(trifluoromethyl)benzenesulfonamide], 29.3 nM.
The same measure, in the same setting: as for `CN(C)[C@@H]1CC[C@@H](C(F)(F)F)C[C@H]1Nc1cc(F)c(S(=O)(=O)Nc2nccs2)cc1Cl` [Example 83, 5-chloro-4-(((1R,2R,5R)-2-(dimethylamino)-5-(trifluoromethyl)cyclohexyl)amino)-2-fluoro-N-(thiazol-2-yl)benzenesulfonamide], the figure is 379 nM; as for `CN(C1CNC1)[C@H]1CCCC[C@@H]1Oc1cc(F)c(S(=O)(=O)Nc2nccs2)cc1C1CC1` [Example 90, 4-(((1S,2S)-2-(azetidin-3-yl(methyl)amino)cyclohexyl)oxy)-5-cyclopropyl-2-fluoro-N-(thiazol-2-yl)benzenesulfonamide formate], 2.64 nM.
